Measurements taken from patent US12085575B2, “Compositions and methods for detecting proteinopathies” (BOARD OF SUPERVISORS OF LOUISIANA STATE UNIVERSITY AND …, priority 2011, dated 2024).
Residues, ends and D or L forms follow the SMILES beside them. *: point of attachment. Cbz = O=C(OCc1ccccc1)*

Columns and labels:
[1] = tested on: autophagosomes and autophagolysosomes; assay: Cyt-ID and LysoTracker Red staining of autophagosomes, lysosomes and autophagolysosomes; format: cell-based, human; settings: for fusion between autophagosomes and lysosomes: Bafl 1 nM 18 h; for mean # of green dots/cell (autophagosomes) / mean # of yellow dots/cell (autophagolysosomes): A-T/control shRNA cells, bafilomycin treated
Method: Autophagasome, lysosome and autophagolysosomes staining. Cells (100,000/point) were cultured on fibronectin-coated glass coverslips. Cells were treated with autophagy inhibitor Bafl (1 nM) (Sigma-Aldrich) for 18 hr. Cells were then exposed to UV radiation and allowed to recover in the presence of inhibitors for 3 h. Cells were then washed (2×1 min) with PBS and co-stained with Cyt-ID® (Cyt-ID® Autophagy Detection Kit from Enzo Lifesciences; Farmingdale, NY) and Lyso Tracker® Red DND-99 (Invitrogen) for 30 min at 37° C. in a CO2 incubator following manufacturer's protocol. Stained cells were then washed (2×1 min) with PBS and fixed with 4% paraformaldehyde for 20 min at room temperature. After washing with PBS (3×10 min), cells were mounted on slides in anti-fade mounting medium with DAPI (Invitrogen). Images were taken using a 63× oil immersion objective with a Leica DMRA2 upright microscope run through SlideBook software (Intelligent Imaging Innovations).
Autophagic flux was also monitored using Cyto-ID® and LysoTrack Red dyes. A-T and ATM+ cells were treated with Bafl (1 nM for 18 h) and then exposed to UV (25 mJ/m2) as indicated. Three hours after recovery in the presence of inhibitors, cells were co-stained with Cyt-ID® and LysoTracker Red® dyes. Fluorescence images of Cyt-ID® and LysoTracker Red® stained cells were made (Color images not shown). Green (autophagosomes; from Cyt-TD®-stained panels), red (lysosomes; from LysoTracker Red-stained panels), and yellow (autophagolysosomes; from merged panels) dots in A-T and ATM+ cells were counted manually using the ImageJ plug-in Cell Counter. Mean number of dots/cell is shown in FIGS. 11A and 11B, respectively. In FIGS. 11A and 11B, the number of autophagosomes (green dots) is represented by stippled bars; the number of lysosomes (red dots) is presented by lined bar; and the number of autophagolysosomes (yellow dots) is represented by clear (white) bars.
Bafilomycin inhibits autophagy at a late stage (47). Whether 3-methyl adenine (3-MA), an autophagy inhibitor known to inhibit autophagy at early stage by inhibiting formation of autophagosomes (56), could block UV-induced autophagic flux was tested in A-T/LV-control shRNA cells. Using Cyto-ID® and LysoTrack Red dyes as described herein in FIGS. 9A, 9B, 11A and 11B, the same criteria were used to judge autophagic activity in immunofluorescence analysis as described for FIGS. 11A and 11B.
The effect of 3-MA on UV-induced autophagic flux was tested in A-T/LV-ISG15 shRNA cells. A-T/LV-ISG15 shRNA cells were either left untreated or treated with 3-MA (10 nM for 18 h), and cells were then exposed to UV (25 mJ/m2). Three hours after recovery in the presence of the inhibitor, cells were co-stained with Cyt-ID® and LysoTracker Red® dyes. Fluorescence images of Cyt-ID® and LysoTracker Red® stained cells were made.

[2] = tested on: polyubiquitylated proteins; assay: Camptothecin-induced degradation of polyubiquitylated proteins in A-T cells; format: cell-based, human; settings: CPT 10 μm with Bafl 1 nm, 24 hr
Method: To test the generality of this observation, the anticancer drug camptothecin (CPT), a genotoxic agent (37, 48-50), which is known to sensitize A-T cells (37), like UV, was used to induce degradation of polyubiquitylated proteins in A-T cells. In FIG. 8E, A-T cells were treated with camptothecin (CPT; 10 μm) in the presence or absence of Bafl (1 nm) for 24 hr. Ubiquitin conjugated proteins using anti-ubiquitin antibodies were detected as described herein for FIG. 8A. The experiment was repeated three times.

[3] = tested on: polyubiquitylated proteins; assay: UV-induced degradation of polyubiquitylated proteins in organotypic cerebellar brain slices; format: cell-based, mice; settings: Bafilomycin A1 18 hrs, UV 150 mJ
Method: Experiments were conducted to determine if UV would induce degradation of the ubiquitin-conjugated cellular proteins in A-T organotypic brain slices grown in culture, similar to the findings described herein for A-T cells (See FIGS. 8A-8B). Two-month-old mice were used irrespective of the gender. Cerebellar organotypic brain slices (400 μm thick) from three mice were obtained using a McIlwain tissue chopper (The Mickle Lab Eng. Co. Ltd). Slices from two A-T mice and three ATM+/− mice were pooled and randomly placed on Millicell culture plate inserts (Millipore, MA). Brain slices were then incubated for 1 day in OptiMem-based medium at 37° C. in a humidified atmosphere of 5% CO2 and 95% air. One day later, slices were treated with Bafilomycin A1 for 18 hrs. Slices were then exposed to UV (150 mJ)) or left untreated. After three hours, tissue lysates were prepared as described herein. Lysates were then analyzed by Western analysis using anti-ubiquitin antibody as described herein, and the results shown in FIG. 17A. Intensity of the total polyubiquitylated proteins and free ubiquitin was quantitated using BioRad Quantity One software. All control values (−UV and +Bafl) were normalized to 100%, and values for experimental treatments were expressed as percent variations over control to give the results shown in FIG. 17B. […]

[4] = tested on: LC3; assay: UV-induced LC3 degradation in organotypic cerebellar brain slices; format: cell-based, mice
Method: In FIG. 19B, LC3 degradation in UV-treated A-T brain slices is shown. The same tissue lysates prepared from A-T and ATM+/− brains used in FIG. 17A were analyzed for LC3 and actin proteins. Intensity of the total LC3 and corresponding actin bands was quantitated using BioRad Quantity One software. The percent changes in LC3 amounts were calculated as a ratio between band intensities of LC3 (I and II) and actin (bar chart). In FIGS. 19A and 19B, the bar graphs have the following legends: bars 1: No drug and +Bafl controls; bars 2: +UV; and bars 3: +Bafl+UV.

[5] = tested on: p53; assay: p53 turnover with CHX with or without MG132; format: cell-based, human; settings: ATM+ cells, MG132 10 μM, CHX 10 μg/ml, 6 hours
Method: Both p53 and STAT3 are known targets of the ubiquitin/26S proteasome pathway. To determine whether steady state level of these proteins is regulated by ATM, turnover of both p53 and STAT3 were measured. In FIG. 2C, FT169A (A-T) and FT169A (ATM+) cells were treated with the protein synthesis inhibitor CHX (10 μg/ml) in the presence (lanes 3 and 6) or absence (lanes 2 and 5) of the proteasome inhibitor MG132 (10 μM) for 6 hours. Cell lysates were analyzed by immunoblotting using an anti-p53 antibody (upper row). The intensity of the p53 bands was measured using a Kodak Image station 2000R […]. Results are shown in the bar graph (right panel). The filter used for immunoblotting was stained with Ponceau S to assure equal protein loading (lower row). […] By contrast, p53 protein was rapidly degraded within 6 hours of CHX treatment in FT169A (ATM+) cells (FIG. 2C, lanes 4 and 5, and bar graph for p53 band quantization).

Structure (SMILES)	fusion between autophagosomes and lysosomes ([1]; A-T cells)	mean # of green dots/cell (autophagosomes) ([1]; with UV) [dots/cell]	mean # of yellow dots/cell (autophagolysosomes) ([1]; with UV) [dots/cell]	mean # of green dots/cell (autophagosomes) ([1]; without UV) [dots/cell]	mean # of yellow dots/cell (autophagolysosomes) ([1]; without UV) [dots/cell]	fusion between autophagosomes and lysosomes ([1]; ATM+ cells)	CPT-mediated degradation of polyubiquitylated proteins [2]	UV-mediated degradation of polyubiquitylated proteins ([3]; A-T brain slices)	UV-induced degradation of polyubiquitylated proteins ([3]; ATM+/− brain slices)	aberrant autophagic flux (degradation) of autophagy substrates under genotoxic stress ([4]; A-T cerebellar brain slices)	UV-induced autophagic flux (LC3 degradation) ([4]; ATM+/− cerebellar slices)	turnover of p53 in the presence of CHX [5]
CO/C1=C\C(C)=C\[C@@H](C)[C@@H](O)[C@@H](C)C/C(C)=C/C=C/[C@H](OC)[C@@H]([C@@H](C)[C@@H](O)[C@H](C)[C@@]2(O)C[C@@H](O)[C@H](C)[C@@H](C(C)C)O2)OC1=O [Bafilomycin A1]	failed to do so	0.8	1.5	6	5.8	blocked fusion	failed to protect	failed to protect	markedly protected	resistant	protected	–
CC(C)C[C@@H](C=O)NC(=O)[C@H](CC(C)C)NC(=O)[C@H](CC(C)C)NC(=O)OCc1ccccc1 [MG132] (Cbz-Leu-Leu-Leu-aldehyde)	–	–	–	–	–	–	–	–	–	–	–	blocked
